Results on two compounds are retold here after patent publication US20110053900A1, “PROGESTERONE ANTAGONISTS SUCH AS CDB-4124 IN THE TREATMENT OF BREAST CANCER” (Repros Therapeutics inc, priority 2008, published 2011).

The term inhibition denotes the relative decrease from the control value, in per cent. A lower inhibition goes with little suppression.

Data set [1] is described as follows: Estrogen levels in human females during administration. It counts as in vivo. The following applies: administration periods of at least six months.
The test system of the next data set is T47Darom cells. As to the kind of experiment: Crystal violet cell proliferation assay in aromatase-overexpressing T47D cells. It counts as cell-based. The following applies: Homo sapiens, 96 h, 4 μM alone, 4 days.
Data set [2] is described as follows: Serum corticosterone by ELISA. It counts as in vivo, rat. The following applies: 20 or 10 mg/kg. Here is the method:
The animals were assessed three times for their levels of progesterone: initially, when they were about to go on treatment; a second time after 21 days of treatment; and finally after treatment at sacrifice which was 2-4 days after the last s.c. injection. All blood samples were taken by heart puncture; serum was prepared and held frozen at −40° C. The levels of the steroid hormones progesterone, cortisol, and corticosterone were determined by ELISA.
The concentrations of steroid hormones were determined three times during the study: before the beginning of treatments, after 21 days of treatment and finally after treatment at sacrifice which was 2-4 days after the last s.c. injection. All samples were taken by heart puncture. Serum was obtained and held frozen at −40° C. The levels of steroid hormones were determined by ELISA.
Corticosterone is the most abundant glucocorticoid in rats. The effects of the SPRMs on cortisol may be secondary to strong effects on corticosterone. […] The levels of corticosterone were 10-40 times higher than the levels of cortisol. However, almost no difference between groups with respect to mean corticosterone levels was observed. […] There was no statistical difference in levels of corticosterone between animals with tumors and without tumors at either 21-days (p=0.94, t-test, two-tailed) or at sacrifice (p=0.37, t-test, two-tailed).

A further data set has as its system rabbit uterus. Briefly: Anti-McGinty and anti-Clauberg assays. It counts as in vivo. The following applies: average of anti-McGinty and anti-Clauberg results relative to CDB-2914 = 1.00. The procedure, abridged:
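Immature female rabbits were primed with 5 μg estradiol s.c. daily for 6 days. Anti-McGinty: compound given intraluminally into a ligated uterine segment, with progesterone 267 μg/day s.c. for 3 days. Anti-Clauberg: compound oral or s.c. with progesterone 160 μg/day for 5 days. Histological endometrial proliferation inhibition, averaged over both assays, is given relative to CDB-2914.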

Data set [3] deals with progesterone receptor (PR). As to the kind of experiment: Expression of progesterone receptor in tumors (IHC). It counts as in vivo, rat. The following applies: 10 mg/kg. The protocol:
(§1) The tumors that were evaluated for proliferation and apoptosis were also assessed for expression of estrogen and progesterone receptors by immunohistochemistry (IHC). The percentage of cells positive for ER and PR was determined and analyzed. Tumors were grouped into four different categories: tumors with 0% of cells expressing ER, tumors with 10% of cells expressing ER, tumors with 15 to 30% of cells expressing ER and tumors with 30-50% of cells expressing ER. In general, untreated tumors consistently expressed ER. Out of 12 tumors analyzed, all 12 expressed ER. Four out of these 12 tumors contained 30-50% ER-positive cells.
Untreated tumors consistently expressed PR (12/12 tumors). In general, untreated tumors expressed both receptors, ER and PR, therefore it is possible that many malignant tumors are expressors of these two transcription factors. […] In general, long term treatment with CDB-4124 tends to drive down the level of PR in tumors, whereas progesterone tends to work in the opposite direction. Thus, tumors maintain progesterone responsiveness in the presence of progesterone.

The next data set deals with estrogen receptor (ER). Briefly: Expression of estrogen receptor in tumors (IHC). The format is in vivo, rat. The following applies: 10 mg/kg. The protocol:
as §1

Molecules are shown by their SMILES.

Text for T47Darom cells: Untreated cells were used as a control. The crystal violet assay was used to measure cell proliferation. The dye in this assay, crystal violet, stains DNA. Upon solubilization, the amount of dye taken up by the cells can be quantitated in a spectrophotometer.

Take `COCC(=O)[C@@]1(OC(C)=O)CC[C@H]2[C@@H]3CCC4=CC(=O)CCC4=C3[C@@H](c3ccc(N(C)C)cc3)C[C@@]21C` [CDB-4124, 21-methoxy-17α-acetoxy-11β-(4 N,N-dimethylaminophenyl)-19-norpregna-4,9-diene-3,20-dione]: the “estrogen levels in human females (in words)” value in data set [1] is “maintain estrogen levels in the normal range”. The compound also registered an inhibition at 4 µM in the data set with T47Darom cells of less than 30%. Further, in data set [2], the “effect on serum corticosterone (in words)” value was “no strong effect”. The “rabbit Biol. Act.” value in the data set with rabbit uterus worked out at 3.60.
As for `CC#C[C@]1(O)CC[C@H]2[C@@H]3CCC4=CC(=O)CCC4=C3[C@@H](c3ccc(N(C)C)cc3)C[C@@]21C` [RU 486, mifepristone, reference compound], in data set [3], the “PR expression in tumors (in words)” value was “neutral for PR”. Also, the “number of cells expressing ER in tumors (in words)” value with estrogen receptor (ER) was “lowered the number of cells that express ERs”.
